Measurements as given in patent US20260035385A1, “BENZO NITROGEN-CONTAINING HETEROAROMATIC RING DERIVATIVE AND USE THEREOF IN MEDICINE” (Xizang Haisco Pharmaceutical Co., Ltd., priority 2021, published 2026).

What was measured:
[1] = system: complement alternative pathway; assay: Biological Test Example 2: complement alternative pathway inhibition, IBL alternative pathway kit, serum from healthy volunteers; type: biochemical, human; conditions: LPS-coated plate, 37 °C 1 h, read-out: IC50 for inhibiting alternative pathway
Procedure: The inhibitory effect of the compounds on the complement alternative pathway was detected using the IBL alternative pathway kit (COMPL AP330 RUO). Serum from healthy volunteers was collected and 1 portion was diluted with a buffer of 20 mM EDTA in gelatin (0.15 mM CaCl2, 141 mM NaCl, 4.5 mM MgCl2, 4.2 mM HEPES, and 0.1% gelatin at pH 7.4) to 50% (v/v), and 1 portion was diluted to 50% (v/v) with a buffer of 20 mM EGTA in gelatin. The compounds were prepared in DMSO to a working solution 100 times the final concentration. Before use, 50% of the above serum was diluted 1/18 with the AP diluent in the kit. 1 part of the compound working solution (v/v) or DMSO (positive control PC) was added to 99 parts of the diluted serum containing EGTA for pretreatment for 30 min, and 1 part of DMSO (v/v) was added to 99 parts of the diluted serum containing EDTA, as negative control (NC). The serum pretreated with the above compounds (or DMSO) was added at […] to the LPS-coated 96-well plate, incubated at 37° C. for 1 h, and the plate was washed 3 times with washing solution in the kit; the conjugated chromogenic substrate was added according to the instruction in the kit, and the absorbance was read at 405 nm with a microplate reader. The inhibitory activity of the compounds on alternative pathway was calculated using the following formula.
OD^CPD was the OD value when the inhibitor was added, OD^NC was the OD value of the negative control, and OD^PC was the OD value of the positive control.
Graphpad was used to perform nonlinear regression on the final concentrations and inhibition rates of the compounds to obtain the IC50 of the compounds for inhibiting the alternative pathway.

FB = FB (Homo sapiens, UniProt P00751); assay: biochemical
C3a levels in mice = assay: Biological Test Example 4: LPS mouse model, plasma C3a level; type: in vivo; conditions: compound given 3.5 h after LPS, plasma at 7.5 h
Procedure: Mice were intravenously given 0.5 mg/ml LPS solution at 100 μL/mouse to create a model, and the naive group was given physiological saline. Mice were given the compounds 3.5 h after injection of physiological saline/LPS solution, and the naive group and model group were given vehicle (0.5% MC+0.5% Tween 80). 7.5 h after the mice in each group were injected with physiological saline/LPS, blood was collected from the orbit and the plasma was separated. The plasma C3a level was detected using mouse C3a ELISA kit (NOVUS/NBP2-70037), and the inhibition rate of C3a was calculated. The formula is as follows: […]
Among them: Ct, C3a level after administration; Cnaive, C3a level of naive group; Cmodel, C3a level of model group.

Caco2 permeability test = type: in vitro ADME; conditions: human; Caco-2 monolayer, 2 μM, 2 h, pH 7.4
Procedure: (§1) The experiment used a monolayer of Caco-2 cells incubated in triplicate in a 96-well Transwell plate. […] Acetonitrile containing internal standard was then added to precipitate the protein. […] The integrity of the cell monolayer after 2 h of incubation was assessed by leakage of Lucifer Yellow.

Caco-2 cells = assay: Caco2 permeability test; type: in vitro ADME; conditions: Caco2, compared with the trifluoroacetate of LNP023, in words
Procedure: as §1

[2] = Pharmacokinetic test in mice; type: in vivo; conditions: male, C57, mouse, plasma, po, i.g. (10 mg/kg)
Procedure: Test objective: In this experiment, a single dose of test compounds was administered to C57 mice intravenously and intragastrically, the concentrations of the test compounds in plasma of mice were measured, and the pharmacokinetic characteristics of the test compounds in mice were evaluated.
Experimental animals: Male C57 mice, 20-25 g, 6-8 weeks old, 18 mice/compound. purchased from Chengdu Ddossy Experimental Animals Co., Ltd.
Experimental method: On the day of the experiment, 18 C57 mice were randomly grouped according to their body weight. The animals were fasted with water available for 12 to 14 hours one day before the administration of a test compound, and were fed 4 hours after the administration.
Sampling: Before and after the administration, 0.08 mL of blood sample was drawn from the orbit under isoflurane anesthesia, and placed in an EDTAK2 centrifuge tube. Centrifugation was carried out at 5000 rpm at 4° C. for 10 min, and the plasma was collected.
Time points for plasma collection in IV&PO group: 0, 5 min, 15 min, 30 min, 1 h, 2 h, 4 h, 6 h, 8h, and 24 h.
(§2) Before analysis and detection, all samples were stored at −60° C. The samples were analyzed quantitatively by LC-MS/MS.

[3] = Pharmacokinetic test of dogs; type: in vivo; conditions: male, beagle, dog, plasma, po, i.g. (5 mg/kg)
Procedure: (§3) Test objective: In this experiment, a single dose of test compounds was administered to beagle dogs intravenously and intragastrically, and the concentrations of the test compounds in plasma of the beagle dogs were measured to evaluate pharmacokinetic characteristics of the test compounds in the beagle dogs.
Experimental animals: Male beagle dogs, 8-11 kg, 1-3 years old, 6 dogs/compound. purchased from Beijing Marshall Biotechnology Co. Ltd.
Experimental method: on the day of the test, 6 beagle dogs were randomly grouped according to their body weights. The animals were fasted with water available for 14 to 18 hours one day before the administration of a test compound, and were fed 4 hours after the administration.
Sampling: Before and after the administration, 1.0 mL of blood was taken from the jugular veins or limb veins, and placed in an EDTAK2 centrifuge tube. Centrifugation was carried out at 5000 rpm at 4° C. for 10 min, and the plasma was collected.
(§4) Time points for plasma collection in IV&PO group: 0, 5 min, 15 min, 30 min, 1 h, 2 h, 4 h, 6 h, 8h, 10 h, 12h, and 24 h.
as §2

[4] = Stability in liver microsome (HLM); type: in vitro ADME, human; conditions: 0.50 mg/mL microsomal protein, 1.00 μM, NADPH, 37 °C
Procedure: (§5) The total volume of the incubation system was 100 μL, the medium was 100 mM phosphate buffer (PBS, pH 7.4), including liver microsomal protein with a final concentration of 0.50 mg/mL, 1.00 μM test substance and 1.00 mM NADPH, 37° C. water bath was used for incubation, and 300 μL of ice-cold acetonitrile containing internal standard was added to terminate the reaction after 0, 5, 10, 20, 30, and 60 min of reaction, respectively. The negative control was incubated with heat-inactivated liver microsomes of the corresponding species, and the incubation time points were 0 and 60 min respectively. The LC/MS/MS method was used to detect the concentration of the test substance in the sample and the remaining rate of the compound was calculated.

[5] = Pharmacokinetic experiment in monkeys; type: in vivo, cynomolgus monkeys; conditions: compared with the trifluoroacetate of LNP023, in words
Procedure: as §3, with “to cynomolgus monkeys” for “to beagle dogs”, “the monkeys” for “the beagle dogs”, “the monkeys.” for “the beagle dogs.”
Experimental animals: Male cynomolgus monkeys, 3-5 kg, 3-6 years old, 6 monkeys/compound. Purchased from Suzhou Xishan Biotechnology Inc.
Experimental method: on the day of the test, 6 monkeys were randomly grouped according to their body weights. The animals were fasted with water available for 14 to 18 hours one day before the administration of a test compound, and were fed 4 hours after the administration.
Sampling: before and after the administration, 1.0 mL of blood was taken from the limb veins, and placed in an EDTAK2 centrifuge tube. Centrifugation was carried out at 5000 rpm at 4° C. for 10 min, and the plasma was collected.
as §4, §2

[6] = Stability in liver microsome (CLM); type: in vitro ADME, cynomolgus monkey; conditions: 0.50 mg/mL microsomal protein, 1.00 μM, NADPH, 37 °C
Procedure: as §5

[7] = Stability in liver microsome (MouLM); type: in vitro ADME, mouse; conditions: 0.50 mg/mL microsomal protein, 1.00 μM, NADPH, 37 °C
Procedure: as §5

[8] = Stability in liver microsome (DLM); type: in vitro ADME, dog; conditions: 0.50 mg/mL microsomal protein, 1.00 μM, NADPH, 37 °C
Procedure: as §5

[9] = Stability in liver microsome (RLM); type: in vitro ADME, rat; conditions: 0.50 mg/mL microsomal protein, 1.00 μM, NADPH, 37 °C
Procedure: as §5

Sequence of FB (P00751 260-764 limits assumed): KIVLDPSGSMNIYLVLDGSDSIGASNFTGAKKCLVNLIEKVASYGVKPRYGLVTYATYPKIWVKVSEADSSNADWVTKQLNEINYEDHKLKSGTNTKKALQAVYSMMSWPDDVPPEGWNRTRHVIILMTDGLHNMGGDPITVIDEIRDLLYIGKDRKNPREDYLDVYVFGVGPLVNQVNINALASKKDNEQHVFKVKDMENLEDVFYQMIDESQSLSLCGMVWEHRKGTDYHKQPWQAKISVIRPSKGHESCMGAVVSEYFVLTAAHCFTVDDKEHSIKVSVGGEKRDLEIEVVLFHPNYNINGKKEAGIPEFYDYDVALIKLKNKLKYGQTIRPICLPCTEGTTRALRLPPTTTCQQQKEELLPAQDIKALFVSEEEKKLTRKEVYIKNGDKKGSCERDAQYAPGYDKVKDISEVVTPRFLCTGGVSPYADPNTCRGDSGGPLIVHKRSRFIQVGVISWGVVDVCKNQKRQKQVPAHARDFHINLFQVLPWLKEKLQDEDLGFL
Sequence of FB (Q91132 23-649 partner limits assumed): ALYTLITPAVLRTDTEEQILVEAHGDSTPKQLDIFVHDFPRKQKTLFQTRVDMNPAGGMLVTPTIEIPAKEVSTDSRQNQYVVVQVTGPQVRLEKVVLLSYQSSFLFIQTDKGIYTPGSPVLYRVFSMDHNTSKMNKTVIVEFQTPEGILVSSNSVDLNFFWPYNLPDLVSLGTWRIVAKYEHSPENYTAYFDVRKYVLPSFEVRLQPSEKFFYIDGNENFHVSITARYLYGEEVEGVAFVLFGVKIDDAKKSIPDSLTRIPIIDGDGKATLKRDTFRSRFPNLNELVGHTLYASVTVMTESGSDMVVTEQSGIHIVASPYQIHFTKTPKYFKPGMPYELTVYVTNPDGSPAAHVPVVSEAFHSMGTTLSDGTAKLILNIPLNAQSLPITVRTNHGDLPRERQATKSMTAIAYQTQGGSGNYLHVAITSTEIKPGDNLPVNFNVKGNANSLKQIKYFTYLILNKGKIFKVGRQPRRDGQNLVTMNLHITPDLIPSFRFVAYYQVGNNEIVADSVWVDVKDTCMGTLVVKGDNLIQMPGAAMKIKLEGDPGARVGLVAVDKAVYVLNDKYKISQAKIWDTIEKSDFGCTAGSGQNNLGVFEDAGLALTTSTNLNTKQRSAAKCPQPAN
Sequence of FB (Q91132 733-984 partner limits assumed): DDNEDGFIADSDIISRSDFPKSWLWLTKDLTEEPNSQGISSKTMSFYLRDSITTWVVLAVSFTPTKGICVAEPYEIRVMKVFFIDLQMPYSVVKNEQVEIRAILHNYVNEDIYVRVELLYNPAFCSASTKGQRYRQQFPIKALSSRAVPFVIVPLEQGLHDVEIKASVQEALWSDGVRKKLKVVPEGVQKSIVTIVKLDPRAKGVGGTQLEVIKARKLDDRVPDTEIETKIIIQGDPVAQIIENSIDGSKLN
Sequence of FB (Q91132 1264-1642 partner limits assumed): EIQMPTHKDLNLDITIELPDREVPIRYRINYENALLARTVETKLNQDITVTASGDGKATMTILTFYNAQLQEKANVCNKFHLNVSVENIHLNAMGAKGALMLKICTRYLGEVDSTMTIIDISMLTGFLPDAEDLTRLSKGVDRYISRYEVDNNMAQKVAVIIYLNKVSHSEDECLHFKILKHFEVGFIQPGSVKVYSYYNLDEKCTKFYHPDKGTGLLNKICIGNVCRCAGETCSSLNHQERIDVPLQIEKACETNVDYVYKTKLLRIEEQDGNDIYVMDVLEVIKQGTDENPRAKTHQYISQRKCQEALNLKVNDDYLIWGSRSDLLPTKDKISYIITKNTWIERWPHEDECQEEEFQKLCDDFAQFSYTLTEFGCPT

Row | Papp A→B at 2 h, 2 μM (Caco2 permeability test) [×10⁻⁶ cm/s] | Papp B→A at 2 h, 2 μM (Caco2 permeability test) [×10⁻⁶ cm/s] | permeability (Caco-2 cells) | bioavailability [2] [%] | AUC(0-t) [2] [ng·h/mL] | bioavailability [3] [%] | AUC(0-t) [3] [ng·h/mL] | half-life [3] [h] | Remaining % (T = 60 min) HLM0.5 [4] [%] | bioavailability in monkeys [5] | oral exposure in monkeys [5] | Remaining % (T = 60 min) CLM0.5 [6] [%] | Remaining % (T = 60 min) MouLM0.5 [7] [%] | Remaining % (T = 60 min) DLM0.5 [8] [%] | Remaining % (T = 60 min) RLM0.5 [9] [%] | Structure (SMILES) | IC50 [1] [nM] | IC50 (FB) [nM] | Inhibition rate of C3a levels in mice (C3a levels in mice; Dosage 30 mg/kg) [%] | Inhibition rate of C3a levels in mice (C3a levels in mice; Dosage 60 mg/kg) [%]
1 | – | – | – | – | – | – | – | – | – | – | – | – | – | – | – | COc1cc(C)c2[nH]ccc2c1CN1CCC2(CCCO2)C[C@H]1c1ccc(C(=O)O)cc1 (single isomer, unassigned) [Trifluoroacetate of compound 2-b (diastereomer 2)] | < 200 | < 500 | 35.04 | 73.12
2 | 2.17 | 23.9 | better | 81.5 | 15900 | 62.6 | 49300 | 20.9 | >90 | higher | higher | >90 | >90 | >90 | >90 | COc1cc(C)c2[nH]ccc2c1CN1CC[C@@H](C2CC2)C[C@H]1c1ccc(C(=O)O)cc1 [Trifluoroacetate of compound 5 (diastereomer 1), 4-((2S)-4-cyclopropyl-1-((5-methoxy-7-methyl-1H-indol-4-yl)methyl)piperidin-2-yl)benzoic acid] | < 200 | – | – | –
